Data from patent publication US8859615B2, “Compounds, compositions and methods for reducing toxicity and treating or preventing diseases” (priority 2008, dated 2014).
Where two headings read alike, the source gives them in different places.

Legend:
CD-1 mouse splenocytes = assay: Splenocyte stimulation: [3H]dThd incorporation into DNA (Table 7, FIGS. 10, 11); type: cell-based; settings: for proliferative activity life-span of normal mouse splenocytes in vitro: FIGS. 10 and 11; for stimulation of DNA synthesis ([3H] thymidine uptake) by mouse splenocytes / Incorporation of [3H]dThd into Mouse Splenocyte DNA (cpm): Table 7; for Incorporation of [3H]dThd into Mouse Splenocyte DNA (cpm): control 224 ± 28
Description: FIG. 10 show controls and the effects of different concentrations of compounds of the invention, at different time points, on the proliferation of cultured mouse splenocytes as measured by DNA synthesis through incorporation of radiolabeled thymidine into the cells' DNA.
FIG. 11 show controls and the effects of different concentrations of compounds of the invention, at different time points, on the proliferation of cultured mouse splenocytes as measured by DNA synthesis through incorporation of radiolabeled thymidine into the DNA.
Splenocytes were prepared from CD mice as a single cell suspension, and treated with red blood cell (RBC) lysis buffer (as described at http://www.ebioscience.com/ebioscience/specs/antibody—00/00-4333.htm) to remove RBCs. In a typical experiment, splenocyte stimulations by […] (PHA), panaxytriol (PXT) or Compound D were measured by using tritium-labeled thymidine, ^3H-dThd, as a tracer for DNA synthesis. DNA synthesis correlates with cell proliferation. The incubation mixture consisted of splenocyte suspension in RPMI 1640 medium (1.56×10^6 cells in 198.5 μl)+3 μg of PHA in 1 μl+ the test compound at various concentrations in 0.5 μl in dimethyl sulfoxide (DMSO), to a final concentration of 200 μl per microplate well. DMSO alone was used in place of the compound in DMSO as a control. The incubation was carried out in 5% CO2-humidified atmosphere at 37° C. for a designated time [e.g., 24 hr, 48 hr, 72 hr, 96 hr]. At the end of the incubation period, ^3H-dThd 1 μCi in 1 μl was added for an additional 6 hr incubation. The reaction was stopped by adding one volume of 20% trichloroacetic acid (TCA), homogenized at 3° C. and washed with 20% TCA. The precipitate was heat extracted (90°) with 10% TCA for 15 minutes to obtain the DNA fraction, which has the radiolabel incorporated, in the supernatant. The supernatant was added to a 7-fold volume of Liquicint for scintillation counting, which was accomplished with a Beckman LS 6000 IC spectrometer from Beckman Coulter Co. The incorporation of [^3H]dThd into DNA of splenocytes were measured as described above or previously (Chou et al. Phytotherap. Res. 3: 237-242, 1989). The results are depicted in FIGS. 11 and 12.
For the cell-counting assays, the cells were washed with RPMI 1640 medium and followed by centrifugation. The cell number was counted with a hemocytometer. Splenocyte suspensions (0.4×10^6 cells in 0.2 ml) in flat bottom 96-well plates were incubated with [^3H]dThd (1 μCi) for 24-hrs in the absence or presence of […] (PHA, 0.1 μg/0.2 ml) or panaxytriol (0.03-1 μM). Studies indicate that maximal stimulation occurred at 48 hrs or 72 hrs. The procedure in Table 7 was used to test the splenocytes used in the assays described herein to test the compounds of the invention, shown by PHA stimulation of DNA synthesis. […] Splenocytes from this culture were used in the assays in FIGS. 11 and 12 and the corresponding Examples.

[1] = test system: CCRF-CEM/VBL100 vinblastine-resistant cells; assay: In vitro cytotoxicity against vinblastine-resistant CCRF-CEM subline; type: cell-based, human; settings: for IC50: Homo sapiens, CCRF-CEM, 72 h; for fold of cross-resistance (CCRF-CEM/Vinblastine vs parent cell line): Table 3D, given as x or -fold
[2] = test system: CCRF-CEM subline resistant to TAXOL; assay: In vitro cytotoxicity against TAXOL-resistant CCRF-CEM subline; type: cell-based, human; settings: for IC50: Homo sapiens, CCRF-CEM; for fold of cross-resistance (CCRF-CEM/TAXOL vs parent cell line): Table 3D, given as x or -fold
Method: The data in Tables 2X, 3A-E, 4, 5, and 6 were obtained using the cell counting kit-8 (CCK-8) tetrazolium assay in a 96-well microplate. Five to seven concentrations of each compound in triplicate were used, and the IC50 values were determined by CompuSyn software automation (Chou T C. and Martin N. ComboSyn, Inc., 2006) based on the median-effect equation and plot (Chou T C. J. Theor. Biol. 59:235-276, 1976; Chou T C. Pharmacol. Rev. 58: 621-681, 2006). […] The r value defines the correlation coefficient of the median-effect plot which signifies the conformity to the mass-action law principle (Chou T C. J. Theor. Biol. 59:235-276, 1976; Chou T C. Pharmacol. Rev. 58:621-681, 2006). These parameters were determined by CompuSyn simulation (available at http://www.combosyn.com).
Absorbance was measured by Powerwave XS microplate spectrophotometer.

[3] = read-out: IC50 CCRF-CEM/Vinblastine
[4] = 72 h, read-out: IC50 CCRF-CEM/TAXOL

C=C[C@H](O)C#CC#CC[C@H]1OC(C)(C)O[C@@H]1CCCCCCC [Compound (D)]
proliferative activity life-span of normal mouse splenocytes in vitro (CD-1 mouse splenocytes): prolonged
IC50 ([1]; Table 3A-2, CCK-8, 72-hr exposure, read-out: CCRF-CEM/VBL (IC50 in μM)): 2.55 µM
IC50 [1, 3]: 0.947 µM
cross-resistance to TAXOL or vinblastine ([1]; TAXOL- or vinblastine-resistant (MDR) sublines): do not appear to be cross-resistant to TAXOL or vinblastine
Fold of resistance (IC50 ratio CCRF-CEM/VBL vs CCRF-CEM) ([1]; Table 3A-2): 2.24 fold
analog is fold more potent (than Compound (A)) ([1]; Table 3A, CCRF-CEM/VBL): (analog is 1.19-fold
fold of cross-resistance (CCRF-CEM/Vinblastine vs parent cell line) [1]: 1.98 fold
IC50 [2, 4]: 1.03 µM
IC50 ([2]; Table 3A-2, CCK-8, 72-hr exposure, read-out: CCRF-CEM/TAXOL (IC50 in μM)): 1.02 µM
Fold of resistance (IC50 ratio CCRF-CEM/TAXOL vs CCRF-CEM) ([2]; Table 3A-2): 0.90 fold
fold of cross-resistance (CCRF-CEM/TAXOL vs parent cell line) [2]: 2.17 fold

C=C[C@@H](O)C#CC#CC[C@@H](O)[C@H](O)CCCCCCC [panaxytriol]
proliferative activity life-span of normal mouse splenocytes in vitro (CD-1 mouse splenocytes): prolonged
stimulation of DNA synthesis ([3H] thymidine uptake) by mouse splenocytes (CD-1 mouse splenocytes): induced stimulation of DNA synthesis
Incorporation of [3H]dThd into Mouse Splenocyte DNA (cpm) (CD-1 mouse splenocytes; 0.03 μM): 227 ± 8.3 cpm
Incorporation of [3H]dThd into Mouse Splenocyte DNA (cpm) (CD-1 mouse splenocytes; 0.1 μM): 251 ± 18 cpm
Incorporation of [3H]dThd into Mouse Splenocyte DNA (cpm) (CD-1 mouse splenocytes; 0.3 μM): 290 ± 20 cpm
Incorporation of [3H]dThd into Mouse Splenocyte DNA (cpm) (CD-1 mouse splenocytes; 1.0 μM): 296 ± 9 cpm
stimulation of DNA synthesis ([3H] thymidine uptake) by mouse splenocytes (CD-1 mouse splenocytes; listed as Panaxytriol): enhance [^3H] thymidine uptake into splenic cells in a dose-dependent manner
IC50 ([1]; read-out: CCRF-CEM/VBL (IC50 in μM)): 4.43 µM
IC50 ([1]; read-out: IC50 CCRF ± CEM/VBL): 14.6 ± 6.92 µM
IC50 [1, 3]: 6.39 µM
fold resistance in brackets (IC50 CCRF-CEM/VBL vs CCRF-CEM) ([1]; Table 3): 1.20 x
Fold of resistance (IC50 ratio CCRF-CEM/VBL vs CCRF-CEM) ([1]; Table 3A-2): 1.20 fold
fold of cross-resistance (CCRF-CEM/Vinblastine vs parent cell line) [1]: 1.27 fold
IC50 ([2]; 72 h, read-out: CCRF-CEM/TAXOL (IC50 in μM)): 3.09 µM
IC50 [2, 4]: 5.22 µM
Fold of resistance (IC50 ratio CCRF-CEM/TAXOL vs CCRF-CEM) ([2]; Table 3A-2): 0.84 fold
fold of cross-resistance (CCRF-CEM/TAXOL vs parent cell line) [2]: 1.04 fold
